Earlier results, collected in patent US7598403B2, “Synthesis of chromanones” (priority 2003, dated 2009).

Test system: day-old broiler chicks
Settings: administered to day-old broiler chicks (Lee et al., 1985)

CC1(C)CC(=O)c2c(ccc(C(=O)CC(N)CO)c2N)O1 (racemic) [FC101, 5-amino-2,2-dimethyl-6-[3′-(R,S)amino-4′-hydroxy-butan-1-one]-2,3-dihydro-4H-1-benzopyran-4-one]
induction of Avian Tibial Dyschondroplasia (ATD): cause ATD
